pIC50: −log10 of the molar value.
Molecular target: T1, Son of sevenless homolog 1 (Homo sapiens, UniProt Q07889)
T1 sequence (Q07889 whole entry): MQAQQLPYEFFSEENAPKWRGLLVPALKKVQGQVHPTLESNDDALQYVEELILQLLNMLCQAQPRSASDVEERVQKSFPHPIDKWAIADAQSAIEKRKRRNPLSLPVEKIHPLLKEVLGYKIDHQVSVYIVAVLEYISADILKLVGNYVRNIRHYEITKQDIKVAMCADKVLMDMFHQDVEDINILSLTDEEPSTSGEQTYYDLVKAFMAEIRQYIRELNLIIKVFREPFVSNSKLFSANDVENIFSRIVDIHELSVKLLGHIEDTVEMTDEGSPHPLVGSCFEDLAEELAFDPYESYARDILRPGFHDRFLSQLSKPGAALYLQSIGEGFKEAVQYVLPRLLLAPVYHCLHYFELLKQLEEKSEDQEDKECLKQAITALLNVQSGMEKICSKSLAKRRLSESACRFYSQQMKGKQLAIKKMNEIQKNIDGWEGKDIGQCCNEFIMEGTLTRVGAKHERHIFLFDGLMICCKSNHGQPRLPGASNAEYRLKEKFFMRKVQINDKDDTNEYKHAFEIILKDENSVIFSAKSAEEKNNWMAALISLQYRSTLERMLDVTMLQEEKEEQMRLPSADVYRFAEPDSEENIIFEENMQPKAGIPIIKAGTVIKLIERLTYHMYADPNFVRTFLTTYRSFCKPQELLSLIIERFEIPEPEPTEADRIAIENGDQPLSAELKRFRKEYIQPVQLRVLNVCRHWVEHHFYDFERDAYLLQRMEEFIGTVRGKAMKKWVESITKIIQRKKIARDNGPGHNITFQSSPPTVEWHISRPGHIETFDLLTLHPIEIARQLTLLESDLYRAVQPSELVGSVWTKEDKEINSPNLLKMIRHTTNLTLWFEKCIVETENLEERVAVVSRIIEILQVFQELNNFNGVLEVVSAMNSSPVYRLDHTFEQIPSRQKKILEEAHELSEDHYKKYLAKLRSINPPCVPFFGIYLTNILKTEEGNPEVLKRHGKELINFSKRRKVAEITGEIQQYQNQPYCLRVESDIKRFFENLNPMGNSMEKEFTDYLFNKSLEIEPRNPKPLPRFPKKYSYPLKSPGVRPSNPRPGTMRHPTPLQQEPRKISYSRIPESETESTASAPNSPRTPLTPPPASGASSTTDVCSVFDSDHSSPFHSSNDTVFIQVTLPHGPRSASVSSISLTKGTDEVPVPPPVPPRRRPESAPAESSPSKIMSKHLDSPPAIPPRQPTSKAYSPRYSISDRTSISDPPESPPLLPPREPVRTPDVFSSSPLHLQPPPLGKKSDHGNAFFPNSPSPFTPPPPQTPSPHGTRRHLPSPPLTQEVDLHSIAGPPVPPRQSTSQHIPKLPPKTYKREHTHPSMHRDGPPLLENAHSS
Test: SOS1-KRas (G12C) FRET Assay
Protocol: Inhibition of the SOS1: KRAS interaction was measured using purified GST-tagged KRAS (res. 1-169, G12C, purified based on Hillig, et al., Proc Natl Acad Sci USA (2019); 116 (7): 2551-2560) and recombinant His10-SOS1 (res. 564-1049; purified based on Hillig, et al.). The final assay was performed at 20 uL with 0.5 nM SOS1 protein and 2.5 nM KRAS protein in a buffer of PBS, 0.1% BSA, 5 mM MgCl2, 0.0025% Igepal, 100 mM KF, 5 mM DTT in a white 384 square well OptiPlate (PerkinElmer, Cat. 6007290). A 2×KRAS working solution was prepared in an assay buffer containing 5 nM GST-KRAS G12C and 2 nM anti-GST-Eu (K) (Cisbio, Cat. 61GSTKLA) and pre-incubated for 15 minutes at 25° C. Compounds were serially diluted in 100% DMSO from 2 mM (positive control, compound I-13, PCT Publ. No. WO2018/115380) or 20 mM and then diluted 1:20 in assay buffer before incubation with a solution of SOS1 protein mixed 1:5 with anti-6His-XL665 FRET […] (Cisbio, Cat. 61HISXL) for 15 minutes at 25° C. before addition of 2×KRAS working solution. The final DMSO concentration is 0.5%. Plates were incubated at RT for 2 hrs before the FRET signal was measured using Envision at emission 665 nm and 615 nm.

pIC50: 7.70
SMILES: C[C@@H](NC(=O)c1cc(N2CCOCC2)c(F)cc1N[C@H]1[C@@H]2CN(C)C[C@@H]21)c1cccc(C(F)F)c1F [US20250368634, Example 55]

From BindingDB's records for patent US20250368634 (SchroDinger, 2025)
